Here are results for 3 molecules from patent publication US20090104705A1, “Ascorbic acid conjugates” (priority 2005, published 2009).

Data set [1] has as its system ICAM-1 expression in HAECs. Kind of data set: ICAM-1 expression in HAECs by ELISA. In kind it is cell-based, human. The settings on record: 35 μM, 24 hours, 5% bovine calf serum. From the text: This example establishes that vitamin C has the ability to abolish HPODE-induced endothelial activation. HAECs were exposed to HPODE or HPODE pretreated with ascorbate. […] Thus, vitamin C pre-treatment of HPODE leads to inactivation of HPODE with respect to its effect on ICAM-1 expression, which supports the proposition that vitamin C-induced degradation of LOOHs and subsequent ascorbylation of the resultant LPO products represents a pathway for elimination and detoxification of LOOHs and their degradation products (Scheme 2). […] As mentioned earlier, there is extensive data in the literature showing that specific LPO products elicit endothelial activation.
With reference to FIG. 14 HPODE was prepared by soybean lipoxygenase treatment of a solution of linoleic acid in phosphate buffer, pH 8.2, with stirring and air bubbling. […] The solution was acidified, and the mixture of HPODE-derived products was recovered from the aqueous solution by extraction with ethyl acetate. The combined ethyl acetate layers were washed with water to remove traces of ascorbic acid. The residue on evaporation was dissolved in 1.0 ml of ethanol, and the solution termed ‘ascorbate-treated HPODE’. […] Activation of HAECs was measured by quantifying ICAM-1 using a commercially available ELISA kit (Zhang and Frei 2001).
Background: An ELISA detects its analyte on a solid surface through an enzyme-linked reagent.

Data set [2] relates to human aortic endothelial cells (HAECs). Kind of data set: MTT assay, cytotoxicity in human aortic endothelial cells. The format is cell-based. The conditions noted are these: 25 to 100 μM, up to 66 hours, 20% bovine calf serum. From the text:
FIG. 13 illustrates the results of cytotoxicity studies in human aortic endothelial cells (HAECs) using the MTT assay (described below). […] The observed cytotoxic effect of HNE is relatively moderate, which is likely due to the presence of 20% bovine calf serum in the culture medium of HAECs, causing inactivation of HNE by adduction to serum proteins and other serum constituents. […] FIG. 13, panel C further illustrates the large difference in cytotoxicity between HNE and ascorbylated HNE in HAECs treated with both compounds at 75 or 100 μM for 42 hours. The results of these experiments strongly support the hypothesis that ascorbylation represents a detoxification pathway for HNE and other electrophilic LPO products.
With reference to […], Cells were grown to confluence in 96-well plates and exposed to 25, 50, 75 or 100 μM HNE or ascorbylated HNE for up to 66 hours (Panels A and B). Cell viability was assessed by spectrophotometric (590 nm) measurement of the reduction of MTT (3-[4,5-dimethylthiazol-2-yl]-2,5-diphenyltetrazolium bromide) by dehydrogenases in respiring mitochondria, and expressed as a percentage of the control (1.0% ethanol). […] The data are presented as mean of five observations (±SD). Asc-HNE=ascorbylated HNE; numbers in legends refer to μM concentrations.

The subject of data set [3] is ICAM-1 expression in BAECs. Kind of data set: ICAM-1 expression in BAECs by ELISA. The format is cell-based. The conditions noted are these: 25 μM, 24 hours, 20% bovine calf serum, data not shown. As for the experimental part: The effect of HNE and ascorbylated HNE on endothelial activation also was determined. To this end, BAECs were exposed to 25 μM HNE or ascorbylated HNE for 24 hours in the presence of 20% bovine calf serum, and subsequently ICAM-1 expression was measured by ELISA. […] In contrast, HNE was reported to inhibit LPS-induced NFκB activation in human monocytic cells (Herbst et al. 1999; Page et al. 1999) and constitutive ICAM-1 expression in HUVECs (Herbst et al. 1999). […] However, unlike the incubation conditions with 20% bovine calf serum, the experiments by Herbst and colleagues were conducted in a serum-free environment in order to avoid inactivation of HNE by serum proteins (see above).

Data set [4] can be described thus: Stability of ascorbyl-HNE conjugate in stored plasma. In kind it is physicochemical, human. Here is the method:
A problem with current biomarkers of oxidative stress is the formation of ex vivo-artifacts arising from sample instability or sample handling. The presence of the ascorbyl-HNE adduct in plasma is not due to an ex vivo-artifact. Moreover, the stability of the ascorbyl-HNE adduct was confirmed to ensure that its concentration was not fluctuating as a function of time. Specifically, aliquots of a plasma sample were analyzed over a time period of one month.

The subject of data set [5] is ICAM-1 expression in HUVECs. The settings on record: serum-free environment; cited from earlier work.

With “hydroperoxy octadecadienoic acids [HPODE]”, the “ICAM-1 expression compared to the vehicle control” value in data set [1] is given as “increase in ICAM-1 expression”.

`CCCCCC1OC(O)CC1C1(O)C(=O)OC2C(O)COC21O` (stereo not drawn) [ascorbyl-HNE conjugate, 3,3α,6-trihydroxy-3-(5-hydroxy 2-pentyl-tetrahydro-furan-3-yl)-tetrahydro-furo[3,2-b]furan-2-one]: in data set [2], the “cell viability of HAECs (MTT assay)” value is listed as “not cytotoxic at any of the concentrations tested”. In data set [3], the “change of ICAM-1 expression compared to the vehicle control” value was “Neither HNE nor ascorbylated HNE caused a change of ICAM-1 expression”. Moreover, in data set [4] (4° C.), the “stability of the conjugate in plasma” value is “stable for at least a month”. Further, the “change in the ascorbyl-HNE conjugate concentration” value in data set [4] (plasma aliquots over one month at 4° C.) worked out at 5.2%.

Take `CCCCCC(O)C=CC=O` (centres unmarked) [HNE, 4-hydroxy-2-nonenal]: the “cell viability of HAECs (MTT assay)” value in data set [2] is listed as “progressive decrease in cell viability”. The “concentration at which the inhibitory effect on ICAM-1 expression was observed” value in data set [5] was no less than 5 µM. For the same molecule, the “change of ICAM-1 expression compared to the vehicle control” value in data set [3] is recorded as “Neither HNE nor ascorbylated HNE caused a change of ICAM-1 expression”.
